Measurements taken from US20240366594A1, “Small Molecule Inhibitors of Formation of Neutrophil-Derived Extracellular Traps (NETosis) and Uses Thereof” (The Brigham and Women's Hospital, Inc., priority 2021, published 2024).

What was measured:
mice challenged with LPS = assay: In vivo LPS-induced septic shock; set-up: species or system mouse; details: for platelet counts in the blood: 2 h post LPS challenge, compared with LPS alone, FIGS. 4C, 8D; for pro-inflammatory cytokine production (serum, ELISA): FIGS. 4E-4G; for neutrophils levels (blood and peritoneal lavage): FIGS. 8A-8C; for release of NETs by neutrophils in the peritoneal lavage (CitH3-positive neutrophils): cytofluorimetry, FIG. 4D; for body temperature 2 h post challenge: ricolinostat 30 mg/kg/dose or GSK484 25 mg/kg/dose i.p., FIG. 4B
Experimental: FIGS. 4A-G. Class I/IIb HDAC inhibition protects against systemic inflammation • (A) Time line of drug treatment and LPS priming and challenge. Mice were intraperitoneally injected, or not, with two doses of ricolinostat or GSK484 and were then intraperitoneally administered with two doses of LPS (−5 h, 1 mg/kg and 0 h, 2 mg/kg) to induce lethal sepsis. Peritoneal lavage and blood were collected 2 h after the LPS challenge. • (B) Body temperature was measured 2 h post challenge. • (C) Concentration of platelets in the blood was measured by cytofluorimetry. • (D) NETosis was measured as neutrophils (Ly6G+/CD11b+) positive for citrullinated histone H3 staining in the peritoneal lavage. • (E-G) Serum cytokines were measured by ELISA. […] Statistics were calculated using one-way ANOVA (*p<0.05; ** p<0.01; *** p<0.001; ****p<0.0001; n.s., not significant). n=15 for each group except the GSK484-treated group (n=10). Gray stars represent comparison of all experimental groups with the saline-treated healthy control. Black stars represent comparison of drug-treated groups with LPS-stimulated mice without drug treatment. Violin plots represent median (dashed line) with quartiles (dotted line). See also FIGS. 8A-F.
FIGS. 8A-F. Class I/IIb HDAC inhibition protects against systemic inflammation. • A-C) Neutrophils numbers and percentage were calculated in blood (A, B) and peritoneal lavage (C) of mice challenged, or not, with LPS. Saline group represent healthy mice. NT group represent mice that were challenged with LPS without receiving any drug. Ricolinostat (30 mg/kg/dose) or GSK484 (25 mg/kg/dose) were administered intraperitoneally at day −1, and 2 hour prior LPS priming. • D) Concentration of platelets in the blood was assessed by cytofluorimetry 2 hours post LPS-challenge. • E, F) Absolute amounts of serum cytokines were measured by ELISA. Violin plots represent median (dashed line) with quartiles (dotted line). Statistics were calculated using One-way ANOVA (*P<0.05; **P<0.01; ***P<0.001; ****P<0.0001; n.s., not significant). Grey stars represent comparison of all experimental groups with the saline control. Black stars represent comparison of drug treated groups with NT group.
Alternatively, neutrophils positive for citrullinated histone H3 were quantified by cytofluorimetry. Briefly, neutrophils from bronco-alveolar lavage fluid or peritoneal lavage fluid were stained for Ly6G, CD11b, CD45 and Zombie dye for 20 minutes at room temperature and then fixed with BD FACS Lysing Solution (cat #349202, BD Biosciences). Samples were washed twice with Intracellular Staining Permeabilization Wash buffer (cat #421002, Biolegend), incubated with anti-citrullinated histone H3 antibody (Abcam) 1 hour at room temperature and subsequently with PE anti-rabbit antibody for 30 minutes. Finally, samples were acquired with BD FACS Fortessa and neutrophils (CD45+/Ly6G+/CD11b+) positive for citrullinated histone H3 were quantified with FlowJo software.
8-week-old female mice were primed with 1 mg/kg of LPS intra peritoneum (i.p.) for 5 hours and then challenged with 2 mg/kg of LPS i.p. Ricolinostat was used at 30 mg/kg/dose, GSK484 at 25 mg/kg/dose and dexamethasone at 10 mg/kg/dose. Drugs were administered i.p. at day −1 and 2 hours prior priming. Blood samples were collected 2 hours post-challenge and cytokines were measured by ELISA. The platelet concentrations and neutrophils numbers in the blood and peritoneal cavity were calculated by cytofluorimetry using CountBright Absolute Cell Counting Beads (Thermo Scientific) according to the manufacturer's instructions. NETosis was measured as quantity of neutrophils in the peritoneal lavage positive for citrullinated histone H3 by cytofluorimetry.

[1] = tested on: mice treated with S. aureus; assay: S. aureus pulmonary infection model (bacterial pneumonia); format: in vivo, mouse; details: for NETosis (citrullinated histone H3 and MPO-DNA complexes in BALF): ELISA, FIGS. 3E and 3F; for bacterial control (S. aureus CFU in lung homogenates): FIG. 3D; for numbers of neutrophils in the BALF: FIG. 3I; for neutrophils circulating in the blood: FIGS. 3H, 7A; for lung barrier alteration (albumin content in BALF): compared with S. aureus alone, FIG. 3C; for citrullinated histone H3-positive neutrophils in the BALF: cytofluorimetric quantification, FIG. 3G; for IL-1β / IL-6: in the BALF, compared with S. aureus only, FIGS. 7B-7D

| Compound | platelet counts in the blood (mice challenged with LPS) | pro-inflammatory cytokine production (serum, ELISA) (mice challenged with LPS) | neutrophils levels (blood and peritoneal lavage) (mice challenged with LPS) | release of NETs by neutrophils in the peritoneal lavage (CitH3-positive neutrophils) (mice challenged with LPS) | body temperature 2 h post challenge (mice challenged with LPS) | NETosis (citrullinated histone H3 and MPO-DNA complexes in BALF) [1] | bacterial control (S. aureus CFU in lung homogenates) [1] | numbers of neutrophils in the BALF [1] | neutrophils circulating in the blood [1] | lung barrier alteration (albumin content in BALF) [1] | citrullinated histone H3-positive neutrophils in the BALF [1] | IL-1β [1] | IL-6 [1] | pro-inflammatory cytokine production (serum, ELISA), comparison with dexamethasone (mice challenged with LPS; dexamethasone 10 mg/kg/dose, ricolinostat 30 mg/kg/dose, FIGS. 8E and 8F) | morbidity (body temperature) ([1]; ricolinostat 30 mg/kg/dose i.p. at -24 h and -3 h, compared with S. aureus only and with S. aureus and GSK484, FIG. 3B) |
| --- | --- | --- | --- | --- | --- | --- | --- | --- | --- | --- | --- | --- | --- | --- | --- |
| COc1cc(C(=O)N2CC[C@@H](O)[C@@H](N)C2)cc2nc(-c3cc4ccccc4n3CC3CC3)n(C)c12 [GSK484] | significantly higher | significantly decreased | increased neutrophils levels | reduced release of NETs | no temperature loss | potently decreased | not affected | increased numbers | no major differences | prevented | inhibit NETosis | significantly decreased | significantly decreased |  |  |
| O=C(CCCCCCNC(=O)c1cnc(N(c2ccccc2)c2ccccc2)nc1)NO [ricolinostat] | significantly higher | significantly decreased | increased neutrophils levels | reduced release of NETs | no temperature loss | potently decreased | not affected | increased numbers | no major differences | prevented | inhibit NETosis | significantly decreased | significantly decreased | efficiently reduced | significantly decreased |
